Data reported in publication PMC9890698 (BMC Biology, 2023).
Several values for one entry are separate records, joined by “and”; a condition that tells them apart may be missing. Equal values may be shown once. *1 amine or outer side, *2 acyl side, *3 side chain or, on linkers, in order; H or OH if unused. Where a SMILES comes first, the peptide text is derived from it. Bridges are numbered along the chain shown (N, C = ends). [ ]: non-standard residue; d: D form. The star is where a group is joined. Leu(3R-OH,Nα-propionyl) = CCC(=O)N[C@H](C(=O)*)[C@H](O)C(C)C; X1 = CC(C)[C@@H](O[*:3])[C@H](N[*:1])C(=O)[*:2]; NMeT = CN[C@H](C(=O)O)[C@@H](C)O; dPhLac = O=C(O)[C@H](O)Cc1ccccc1; NMeA = CN[C@@H](C)C(=O)O; NMeDha = C=C(NC)C(=O)O

Tests used:
P2Y12-R = conditions: result in words; cited from earlier work
[1] = test system: washed murine platelets (P2Y1-R/Gαq signaling); experiment: IP1 accumulation assay (HTRF) in washed murine platelets; format: cell-based, mouse; conditions: Gq inhibitor 100 nM, 2 h
Description: (§1) As performed in HEK293T cells, we thus quantified intracellular IP1 levels to monitor Gαq protein-dependent signaling pathways.
Platelet-rich plasma (PRP) was obtained by mixing blood with 1 volume of modified Hepes Tyrode’s buffer (137 mM NaCl, 2 mM KCl, 12 mM NaHCO3, 0.3 mM NaH2PO4, 1 mM MgCl2, 2 mM CaCl2, 5.5 mM glucose, 5 mM HEPES, and 0.35% (w/v) BSA, pH 6.7) followed by a centrifugation at 150 g for 2 min at 37 °C. Then, platelets were pelleted by centrifugation at 1000 g for 4 min, resuspended in modified Hepes Tyrode’s buffer (pH 7.4), adjusted to 3.10^8 platelets/mL in the presence of 0.02 U/mL of apyrase and 10 μM indomethacin and rested for 45 minutes at 37°C before platelet stimulation. PGI2 (0.5 μM) was added before centrifugation steps to avoid platelet activation.
(§2) Quantification of intracellular IP1 was performed using the HTRF (Homogeneous Time Resolved Fluorescence) IP1 competitive immunoassay (IP-One Tb kit. Cisbio. France) according to the manufacturer’s instructions. Briefly, 20,000 HEK293T/17 cells or 3.10^6 platelets were distributed in a 384-well white microplate (Greiner) and incubated with the indicated molecules for 30 min or 2 h at 37 °C in the presence of 50 mM of LiCl to prevent IP1 degradation. After addition of d2-labeled IP1 (acceptor) and anti-IP1-Cryptate (donor) for 1 h, the specific FRET signals were calculated by the fluorescence ratio of the acceptor and donor emission signal (665/620 nm) collected using a modified Infinite F500 (Tecan Group Ltd). Conversion of the HTRF ratio of each sample into IP1 concentrations was performed on the basis of a standard curve to determine the linear dynamic range of the assay.

Human P2Y1-R = target: T1, Human P2Y1-R (Homo sapiens, UniProt P47900); experiment: IP1 accumulation assay (HTRF) in HEK293T cells expressing P2Y1-R; format: cell-based; conditions: ADP 100 μM, MRS2179 10 μM, Gq inhibitor 100 nM, 2 h, result in words
T1 construct: expressed in transfected cells; host or cells: HEK293T/17

HEK293T cells (pcDNA3.1) = experiment: IP1 accumulation assay (HTRF) in control HEK293T cells (pcDNA3.1); format: cell-based, Human; conditions: pcDNA3.1, Gq inhibitor 100 nM, 2 h
Source text: Since Gαq protein activation is known to induce PLC activation leading to IP3 and subsequent cytosolic calcium release, we analyzed the constitutive Gαq-dependent P2Y1-R signaling by quantifying intracellular inositol monophosphate (IP1) using a monoclonal antibody-based competitive ELISA. IP1 is a downstream metabolite of IP3 that accumulates in cells following Gαq protein-coupled receptor activation, making it an ideal readout for Gαq protein-dependent signaling pathways.
as §2

[2] = test system: washed human platelets (P2Y1-R/Gαq signaling); experiment: IP1 accumulation assay (HTRF) in washed human platelets; format: cell-based; conditions: Gq inhibitor 100 nM, 2 h
Description: as §1
Human platelets were prepared from adult healthy volunteers free of antiplatelet or anti-inflammatory medication since at least ten days. […] After two steps of centrifugation and suspension in Tyrode’s buffer (140 mM NaCl, 5 mM KCl, 5 mM KH2PO4, 1 mM MgSO4, 10 mM HEPES, 5 mM glucose and 0.35% (w/v) BSA, pH 6,7), washed platelets were suspended in the same buffer adjusted to pH 7.4 and containing 1 mM CaCl2. The final platelet suspension was adjusted to 3.10^8 platelets/mL and rested for 45 min in the presence of 0.02 U/mL apyrase and 10 μM indomethacin at 37 °C prior experiments. PGI2 (0.5 μM) was added before centrifugation steps to avoid platelet activation.
as §2

washed human platelets = conditions: TRAP stimulation, result in words
Description: For platelet dense granule secretion, washed human platelets were stimulated with 50 μM TRAP (10 min, 37 °C) and stained with conjugated anti-CD63 FITC-conjugated antibody (BD Biosciences reference 557288. 1:5) for 15 min at room temperature. The platelets were then diluted into 1 mL PBS and samples were then kept in the dark until analysis by flow cytometry. The results are expressed as median fluorescence intensity (MFI).

T1 sequence (P47900 whole entry): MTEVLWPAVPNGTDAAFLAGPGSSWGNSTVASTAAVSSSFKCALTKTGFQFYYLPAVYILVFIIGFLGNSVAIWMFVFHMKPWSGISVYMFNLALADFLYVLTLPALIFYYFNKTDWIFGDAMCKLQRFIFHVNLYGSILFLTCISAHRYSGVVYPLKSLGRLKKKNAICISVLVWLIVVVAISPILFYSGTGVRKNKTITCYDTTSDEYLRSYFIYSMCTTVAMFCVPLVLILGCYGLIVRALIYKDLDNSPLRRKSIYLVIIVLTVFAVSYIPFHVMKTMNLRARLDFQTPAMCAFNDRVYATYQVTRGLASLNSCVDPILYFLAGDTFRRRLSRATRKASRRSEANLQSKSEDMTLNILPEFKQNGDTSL

Compound: CCCCOC(=O)N1CCN(C(=O)[C@H](CP(=O)(O)O)NC(=O)c2cc(N3CC[C@H](OC)C3)nc(-c3ccccc3)n2)CC1 [selatogrel]
- Behaviour at P2Y12-R constitutive signaling (P2Y12-R): inverse agonists

Compound: C=C1C(=O)N[C@@H](C)C(=O)N(C)[C@@H](C)C(=O)N[C@@H]([C@H](OC(=O)[C@@H](NC(=O)CC)[C@H](O)C(C)C)C(C)C)C(=O)N(C)[C@@H]([C@@H](C)OC)C(=O)O[C@H](C(C)C)[C@H](NC(C)=O)C(=O)O[C@H](Cc2ccccc2)C(=O)N1C [FR900359] (Ac-[X1][dPhLac][NMeDha]A[NMeA][X1](Leu(3R-OH,Nα-propionyl))[NMeT](Me); ester 1-C)
- IP1 concentration (% matched basal values) ([1]; murine platelets, individual mice): 27.5986 % matched basal values and 38.7127 % matched basal values and 47.9185 % matched basal values and 40.8858 % matched basal values and 59.9249 % matched basal values and 76.9346 % matched basal values and 9.098 % matched basal values and 14.2482 % matched basal values and 23.5315 % matched basal values and 11.8913 % matched basal values and 61.9938 % matched basal values and 36.9021 % matched basal values and 16.0009 % matched basal values
- Effect on IP1 levels ([1]; washed murine platelets, ADP 100 μM, MRS2179 10 μM, apyrase 0.02 U/mL, result in words): inhibited
- Effect on IP1 production (Human P2Y1-R): significantly reduced
- IP1 concentration (HEK293T cells (pcDNA3.1)): 132.385 nM and 158.041 nM and 95.7319 nM and 85.9635 nM and 143.254 nM
- IP1 concentration (% matched basal values) ([2]; human platelets, individual donors): 19.0758 % matched basal values and 11.9666 % matched basal values and 43.5394 % matched basal values and 60.8621 % matched basal values and 37.3209 % matched basal values and 49.8124 % matched basal values and 75.4834 % matched basal values and 64.9734 % matched basal values and 85.7248 % matched basal values and 88.8134 % matched basal values and 81.06 % matched basal values and 83.4552 % matched basal values and 77.0271 % matched basal values and 36.4555 % matched basal values and 43.6521 % matched basal values and 9.5459 % matched basal values
- Effect on IP1 levels ([2]; washed human platelets, ADP 100 μM, antagonists 10 μM, apyrase 0.02 U/mL, result in words): inhibited

Compound: CSCCNc1nc(SCCC(F)(F)F)nc2c1ncn2[C@@H]1O[C@H](COP(=O)(O)OP(=O)(O)C(Cl)(Cl)P(=O)(O)O)[C@@H](O)[C@H]1O [cangrelor]
- Behaviour at P2Y12-R constitutive signaling (P2Y12-R): inverse agonists

Compound: thrombin receptor activating peptide [TRAP]
- CD63 exposure at the platelet surface (washed human platelets): strong exposure of CD63

Compound: CCCSc1nc(N[C@@H]2C[C@H]2c2ccc(F)c(F)c2)c2nnn([C@@H]3C[C@H](OCCO)[C@@H](O)[C@H]3O)c2n1 [ticagrelor]
- Behaviour at P2Y12-R constitutive signaling (P2Y12-R): inverse agonists
